According to ChEMBL document CHEMBL3217615, “Novel 3,5-bis(arylidiene)-4-piperidone based monocarbonyl analogs of curcumin: anticancer activity evaluation and mode of action study” (2014):

Experiments:
Type in all cases: functional
[1] = Growth inhibition of human HOP92 cells assessed as cell growth at 10^-8 M after 48 hrs by sulforhodamine B assay; conditions: HOP-92, 48 h; for growth at 0.01 µM: read-out: Activity; for TGI: read-out: pTGI (converted)
CCRF-CEM = assay: Growth inhibition of human CCRF-CEM cells assessed as cell growth at 10^-4 M after 48 hrs by sulforhodamine B assay; conditions: read-out: Activity
[2] = Growth inhibition of human OVCAR4 cells assessed as cell growth at 10^-4 M after 48 hrs by sulforhodamine B assay; conditions: OVCAR-4, 48 h, read-out: Activity
IGROV-1 = assay: Growth inhibition of human IGROV1 cells assessed as cell growth at 10^-7 M after 48 hrs by sulforhodamine B assay; conditions: IGROV-1, 48 h, read-out: Activity
[3] = Growth inhibition of human BT549 cells assessed as cell growth at 10^-4 M after 48 hrs by sulforhodamine B assay; conditions: BT-549, 48 h, read-out: Activity
A549 = assay: Growth inhibition of human A549/ATCC cells assessed as cell growth at 10^-7 M after 48 hrs by sulforhodamine B assay; conditions: A549, 48 h, read-out: Activity
[4] = Growth inhibition of human OVCAR8 cells assessed as cell growth at 10^-8 M after 48 hrs by sulforhodamine B assay; conditions: OVCAR-8, 48 h; for growth at 0.01 µM: read-out: Activity; for TGI: read-out: pTGI (converted)
MDA-MB-231 [5] = assay: Growth inhibition of human MDA-MB-231 cells assessed as cell growth at 10^-8 M after 48 hrs by sulforhodamine B assay; conditions: MDA-MB-231, 48 h; for growth at 0.01 µM: read-out: Activity; for TGI: read-out: pTGI (converted)
[6] = Growth inhibition of human UO31 cells assessed as cell growth at 10^-8 M after 48 hrs by sulforhodamine B assay; conditions: UO-31, 48 h; for growth at 0.01 µM: read-out: Activity; for TGI: read-out: pTGI (converted)
NCI-H23 [7] = assay: Growth inhibition of human NCI-H23 cells assessed as cell growth at 10^-4 M after 48 hrs by sulforhodamine B assay; conditions: NCI-H23, 48 h, read-out: Activity
[8] = Growth inhibition of human LOXIMVI cells assessed as cell growth at 10^-7 M after 48 hrs by sulforhodamine B assay; conditions: LOX IMVI, read-out: Activity
[9] = Growth inhibition of human BT549 cells assessed as cell growth at 10^-8 M after 48 hrs by sulforhodamine B assay; conditions: BT-549, 48 h; for growth at 0.01 µM: read-out: Activity; for TGI: read-out: pTGI (converted)
SNB-75 [10] = assay: Growth inhibition of human SNB75 cells assessed as cell growth at 10^-4 M after 48 hrs by sulforhodamine B assay; conditions: SNB-75, 48 h, read-out: Activity
SNB-75 [11] = assay: Growth inhibition of human SNB75 cells assessed as cell growth at 10^-8 M after 48 hrs by sulforhodamine B assay; conditions: SNB-75, 48 h; for growth at 0.01 µM: read-out: Activity; for TGI: read-out: pTGI (converted)
A498 [12] = assay: Growth inhibition of human A498 cells assessed as cell growth at 10^-4 M after 48 hrs by sulforhodamine B assay; conditions: A498, 48 h, read-out: Activity
NCI-H522 = assay: Growth inhibition of human NCI-H522 cells assessed as cell growth at 10^-8 M after 48 hrs by sulforhodamine B assay; conditions: NCI-H522, 48 h; for growth at 0.01 µM: read-out: Activity; for CC50: read-out: pLC50 (the source's name) (converted); for TGI: read-out: pTGI (converted)
M14 = assay: Growth inhibition of human M14 cells assessed as cell growth at 10^-6 M after 48 hrs by sulforhodamine B assay; conditions: M14, 48 h, read-out: Activity
A498 [13] = assay: Growth inhibition of human A498 cells after 48 hrs by sulforhodamine B assay; conditions: A498, 48 h; for CC50: read-out: LC50 (the source's name)
CAKI-1 = assay: Growth inhibition of human CAKI-1 cells assessed as cell growth at 10^-4 M after 48 hrs by sulforhodamine B assay; conditions: CAKI-1, 48 h, read-out: Activity
[14] = Growth inhibition of human MOLT4 cells assessed as cell growth at 10^-8 M after 48 hrs by sulforhodamine B assay; conditions: MOLT-4, 48 h; for growth at 0.01 µM: read-out: Activity; for CC50: read-out: pLC50 (the source's name) (converted); for TGI: read-out: pTGI (converted)
COLO 205 [15] = assay: Induction of apoptosis in human COLO205 cells assessed as late apoptosis cells level at 10 uM after 24 hrs by Annexin V/propidium iodide staining-based fluorescence microscopy
Malme-3M [16] = assay: Growth inhibition of human MALME-3M cells assessed as cell growth at 10^-7 M after 48 hrs by sulforhodamine B assay; conditions: read-out: Activity
DU-145 = assay: Growth inhibition of human DU145 cells assessed as cell growth at 10^-4 M after 48 hrs by sulforhodamine B assay; conditions: DU-145, 48 h, read-out: Activity
NCI-H460 = assay: Growth inhibition of human NCI-H460 cells assessed as cell growth at 10^-6 M after 48 hrs by sulforhodamine B assay; conditions: NCI-H460, 48 h, read-out: Activity
Malme-3M [17] = assay: Growth inhibition of human MALME-3M cells assessed as cell growth at 10^-4 M after 48 hrs by sulforhodamine B assay; conditions: read-out: Activity
SN12C = assay: Growth inhibition of human SN12C cells assessed as cell growth at 10^-4 M after 48 hrs by sulforhodamine B assay; conditions: read-out: Activity
COLO 205 [18] = assay: Induction of apoptosis in human COLO205 cells assessed as caspase 8 activation at 10 uM by FLICA
NCI-H23 [19] = assay: Growth inhibition of human NCI-H23 cells assessed as cell growth at 10^-6 M after 48 hrs by sulforhodamine B assay; conditions: NCI-H23, 48 h, read-out: Activity
[20] = Growth inhibition of human NCI-ADR-RES cells assessed as cell growth at 10^-4 M after 48 hrs by sulforhodamine B assay; conditions: read-out: Activity
[21] = Growth inhibition of human UACC257 cells assessed as cell growth at 10^-8 M after 48 hrs by sulforhodamine B assay; conditions: UACC-257, 48 h; for growth at 0.01 µM: read-out: Activity; for TGI: read-out: pTGI (converted)
PC-3 = assay: Growth inhibition of human PC3 cells after 48 hrs by sulforhodamine B assay; conditions: PC-3, 48 h; for CC50: read-out: LC50 (the source's name)
[22] = Growth inhibition of human SF295 cells assessed as cell growth at 10^-4 M after 48 hrs by sulforhodamine B assay; conditions: SF-295, 48 h, read-out: Activity
MDA-MB-231 [23] = assay: Growth inhibition of human MDA-MB-231 cells after 48 hrs by sulforhodamine B assay; conditions: MDA-MB-231, 48 h

SMILES: O=C1/C(=C/c2ccc(Cl)cc2Cl)CN(S(=O)(=O)c2ccccc2)C/C1=C\c1ccc(Cl)cc1Cl
- GI50 [1]: 1.7 µM
- LC50 [1]: > 100 µM
- growth at 0.01 µM [1]: 81%
- TGI [1]: 5.5 µM
- growth at 100 µM (CCRF-CEM): -19%
- growth at 100 µM [2]: 15%
- growth at 0.1 µM (IGROV-1): 130%
- growth at 100 µM [3]: -42%
- growth at 0.1 µM (A549): 94%
- GI50 [4]: 0.229 µM
- LC50 [4]: > 100 µM
- growth at 0.01 µM [4]: 99%
- TGI [4]: 0.955 µM
- GI50 (MDA-MB-231 [5]): 0.468 µM
- growth at 0.01 µM (MDA-MB-231 [5]): 102%
- TGI (MDA-MB-231 [5]): 2.14 µM
- GI50 [6]: 0.234 µM
- LC50 [6]: 4.79 µM
- growth at 0.01 µM [6]: 88%
- TGI [6]: 0.646 µM
- growth at 100 µM (NCI-H23 [7]): -28%
- growth at 0.1 µM [8]: 89%
- GI50 [9]: 0.977 µM
- LC50 [9]: > 100 µM
- growth at 0.01 µM [9]: 106%
- TGI [9]: 4.17 µM
- growth at 100 µM (SNB-75 [10]): -33%
- GI50 (SNB-75 [11]): 0.437 µM
- LC50 (SNB-75 [11]): > 100 µM
- growth at 0.01 µM (SNB-75 [11]): 79%
- TGI (SNB-75 [11]): 7.24 µM
- growth at 100 µM (A498 [12]): -8%
- GI50 (NCI-H522): 0.851 µM
- growth at 0.01 µM (NCI-H522): 95%
- CC50 (NCI-H522): 9.77 µM
- TGI (NCI-H522): 3.02 µM
- growth at 1 µM (M14): 93%
- GI50 (A498 [13]): 0.727 µM
- TGI (A498 [13]): 4.39 µM
- CC50 (A498 [13]): > 100 µM
- growth at 100 µM (CAKI-1): -11%
- GI50 [14]: 0.589 µM
- growth at 0.01 µM [14]: 104%
- CC50 [14]: > 100 µM
- TGI [14]: 9.12 µM
- Activity (COLO 205 [15]): 18%
- growth at 0.1 µM (Malme-3M [16]): 129%
- growth at 100 µM (DU-145): -10%
- growth at 1 µM (NCI-H460): -53%
- growth at 100 µM (Malme-3M [17]): 22%
- growth at 100 µM (SN12C): -44%
- Activity (COLO 205 [18]): 23%
- growth at 1 µM (NCI-H23 [19]): 18%
- growth at 100 µM [20]: 21%
- GI50 [21]: 4.07 µM
- LC50 [21]: > 100 µM
- growth at 0.01 µM [21]: 94%
- TGI [21]: > 100 µM
- GI50 (PC-3): 0.291 µM
- TGI (PC-3): 1.03 µM
- CC50 (PC-3): > 100 µM
- growth at 100 µM [22]: -11%
- GI50 (MDA-MB-231 [23]): 0.466 µM
- TGI (MDA-MB-231 [23]): 2.16 µM

SMILES: Cc1ccc(S(=O)(=O)N2C/C(=C\c3cc(F)cc(F)c3)C(=O)/C(=C/c3cc(F)cc(F)c3)C2)cc1
- GI50 [1]: 1.12 µM
- LC50 [1]: 9.77 µM
- growth at 0.01 µM [1]: 72%
- TGI [1]: 3.31 µM
- growth at 100 µM (CCRF-CEM): -29%
- growth at 100 µM [2]: -81%
- growth at 0.1 µM (IGROV-1): 106%
- growth at 100 µM [3]: -95%
- growth at 0.1 µM (A549): 93%
- GI50 [4]: 0.302 µM
- LC50 [4]: 16.2 µM
- growth at 0.01 µM [4]: 95%
- TGI [4]: 1.78 µM
- GI50 (MDA-MB-231 [5]): 0.269 µM
- LC50 (MDA-MB-231 [5]): 8.51 µM
- growth at 0.01 µM (MDA-MB-231 [5]): 98%
- TGI (MDA-MB-231 [5]): 0.776 µM
- GI50 [6]: 1.1 µM
- LC50 [6]: 5.13 µM
- growth at 0.01 µM [6]: 91%
- TGI [6]: 2.34 µM
- growth at 100 µM (NCI-H23 [7]): -72%
- growth at 0.1 µM [8]: 92%
- GI50 [9]: 0.339 µM
- LC50 [9]: 3.55 µM
- growth at 0.01 µM [9]: 102%
- TGI [9]: 0.933 µM
- growth at 100 µM (SNB-75 [10]): -86%
- GI50 (SNB-75 [11]): 2 µM
- LC50 (SNB-75 [11]): 26.3 µM
- growth at 0.01 µM (SNB-75 [11]): 88%
- TGI (SNB-75 [11]): 5.89 µM
- growth at 100 µM (A498 [12]): -86%
- GI50 (NCI-H522): 0.316 µM
- growth at 0.01 µM (NCI-H522): 100%
- CC50 (NCI-H522): 3.89 µM
- TGI (NCI-H522): 0.955 µM
- growth at 1 µM (M14): 12%
- GI50 (A498 [13]): 1.88 µM
- TGI (A498 [13]): 4.05 µM
- CC50 (A498 [13]): 8.76 µM
- growth at 100 µM (CAKI-1): -57%
- GI50 [14]: 0.302 µM
- growth at 0.01 µM [14]: 100%
- CC50 [14]: > 100 µM
- TGI [14]: 2.09 µM
- Activity (COLO 205 [15]): 43%
- growth at 0.1 µM (Malme-3M [16]): 101%
- growth at 100 µM (DU-145): -87%
- growth at 1 µM (NCI-H460): 45%
- growth at 100 µM (Malme-3M [17]): -78%
- growth at 100 µM (SN12C): -96%
- Activity (COLO 205 [18]): 61%
- growth at 1 µM (NCI-H23 [19]): 77%
- growth at 100 µM [20]: -57%
- GI50 [21]: 0.933 µM
- LC50 [21]: 8.51 µM
- growth at 0.01 µM [21]: 93%
- TGI [21]: 2.88 µM
- GI50 (PC-3): 0.248 µM
- TGI (PC-3): 0.803 µM
- CC50 (PC-3): 9.28 µM
- growth at 100 µM [22]: -75%
- GI50 (MDA-MB-231 [23]): 0.27 µM
- TGI (MDA-MB-231 [23]): 0.784 µM
- CC50 (MDA-MB-231 [23]; read-out: LC50 (the source's name)): 8.48 µM
